Where a name gives a salt, the structure may show the parent alone.
Target: human GlyT1c transporter (Homo sapiens (Human), UniProt P48067)
Assay: Radioligand binding assay using recombinant CHO cell membranes expressing human GlyT1
Settings: examples 88-204, radioligand not specified by footnote, read-out: radioligand binding Kiapp
Protocol: 2. Radioligand binding assays using recombinant CHO cell membranes expressing human GlyT1:
Radioligand binding to human GlyT1c transporter-expressing membranes was carried out as described in Mezler et al., Molecular Pharmacology 74:1705-1715, 2008.
More specifically, [^3H]-(R)-NPTS radioligand binding to human GlyT1c transporter-expressing membranes was measured in duplicate in a total volume of 200 μl in 96-well plates. To 100 μl of membrane suspension (yielding a final membrane protein concentration of 50 μg/ml) in assay buffer (120 mM NaCl, 2 mM KCl, 10 mM Hepes, 1 mM MgCl2, 1 mM CaCl2, pH 7.5) […] of [^3H]-(R)-NPTS (0.5 nM final) were added in assay buffer. For competition experiments 10 μl of buffer or unlabeled compound solution obtained from dilution series of test compounds in DMSO followed. An intermediate 1:10 dilution in assay buffer yielded a final DMSO concentration of 1%. Non-specific binding was determined in the presence of 10 μM Org24598 (or its racemate Org24461) for [^3H]-(R)-NPTS. After incubation at room temperature for 1 h, the incubation mixture was harvested (Tomtec Mach III U Harvester) through 96-well GF/B filter plates (PerkinElmer), presoaked for 1 h with 40 μl per well of 0.1% polyethylene-imine (PEI). After washing twice with ice-cold 50 mM Tris-HCl pH 7.4 buffer, drying and addition of 35 μl scintillator (BetaplateScint, PerkinElmer) per well followed. The radioactivity was determined by liquid scintillation spectrometry in a MicroBeta (PerkinElmer) plate counter.
Data analysis: For binding of [^3H]-(R)-NPTS to cell membranes, the calculation of Kd and Bmax values from the saturation binding assays and the IC50 values from the displacement binding was performed by iterative non-linear regression analysis adapted from the ‘Ligand’ program (Munson and Rodbard, 1980). Radioligand displacement curves in absence or in presence of increasing concentrations of tested compounds were fitted using a one-site fit and the apparent Ki values were calculated from the IC50 values using the Cheng-Prusoff equation (Cheng and Prusoff 1973).

human GlyT1c transporter, sequence (P48067 whole entry): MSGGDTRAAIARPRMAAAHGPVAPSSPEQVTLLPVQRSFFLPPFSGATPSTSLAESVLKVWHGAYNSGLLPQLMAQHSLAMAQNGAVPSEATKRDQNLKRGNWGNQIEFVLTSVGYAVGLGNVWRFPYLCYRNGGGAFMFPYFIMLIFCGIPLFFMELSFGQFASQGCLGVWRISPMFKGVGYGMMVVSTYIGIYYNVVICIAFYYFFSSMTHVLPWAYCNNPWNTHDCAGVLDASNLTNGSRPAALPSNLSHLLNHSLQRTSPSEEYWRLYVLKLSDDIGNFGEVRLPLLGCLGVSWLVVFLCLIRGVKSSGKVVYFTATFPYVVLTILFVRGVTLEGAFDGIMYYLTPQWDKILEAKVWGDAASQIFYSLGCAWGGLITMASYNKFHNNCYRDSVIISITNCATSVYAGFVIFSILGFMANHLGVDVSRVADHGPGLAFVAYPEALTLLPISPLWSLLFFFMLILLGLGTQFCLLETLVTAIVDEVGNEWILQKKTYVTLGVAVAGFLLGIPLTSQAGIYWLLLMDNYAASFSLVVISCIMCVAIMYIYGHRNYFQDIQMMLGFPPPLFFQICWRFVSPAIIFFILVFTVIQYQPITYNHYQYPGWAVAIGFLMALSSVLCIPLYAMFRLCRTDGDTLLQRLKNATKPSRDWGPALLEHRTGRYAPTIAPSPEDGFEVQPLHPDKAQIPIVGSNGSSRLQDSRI

Ki [nM]	Structure (SMILES)
≤ 10000	CCCS(=O)(=O)NCCOc1ccc2c(c1)C(C1(c3ccc(Cl)cc3)CCC1)N(C(C)=O)CC2 (stereo not shown) [Example 171, N-[2-({2-Acetyl-1-[1-(4-chlorophenyl)cyclobutyl]-1,2,3,4-tetrahydroisoquinolin-7-yl}oxy)ethyl]propane-1-sulfonamide]
≤ 10000	O=S(=O)(NCCOc1ccc2c(c1)C(C1(c3ccc(Cl)cc3)CCC1)NCC2)c1ccc(Oc2ccccc2)nc1 (stereo not shown) [Example 173, N-[2-({1-[1-(4-Chlorophenyl)cyclobutyl]-1,2,3,4-tetrahydroisoquinolin-7-yl}oxy)ethyl]-6-phenoxypyridine-3-sulfonamide hydrochloride]
≤ 10000	CCCS(=O)(=O)N(CCN)CCOc1ccc2c(c1)C(C1(c3ccc(Cl)cc3)CCC1)NCC2 (stereo not shown) [Example 174, N-(2-Aminoethyl)-N-[2-({1-[1-(4-chlorophenyl)cyclobutyl]-1,2,3,4-tetrahydroisoquinolin-7-yl}oxy)ethyl]propane-1-sulfonamide dihydrochloride]
≤ 10000	O=S(=O)(NCCOc1ccc2c(c1)C(C1(c3ccc(Cl)cc3)CCC1)NCC2)C1CCN(Cc2ccccc2)CC1 (stereo not shown) [Example 177, 1-Benzyl-N-[2-({1-[1-(4-chlorophenyl)cyclobutyl]-1,2,3,4-tetrahydroisoquinolin-7-yl}oxy)ethyl]piperidine-4-sulfonamide hydrochloride]
≤ 10000	CNCCCS(=O)(=O)NCCOc1ccc2c(c1)C(C1(c3ccc(Cl)cc3)CCC1)NCC2 (stereo not shown) [Example 178, N-[2-({1-[1-(4-Chlorophenyl)cyclobutyl]-1,2,3,4-tetrahydroisoquinolin-7-yl}oxy)ethyl]-3-(methylamino)propane-1-sulfonamide (2E)-but-2-enedioate]
≤ 10000	CC(=O)N1CC(S(=O)(=O)NCCOc2ccc3c(c2)C(C2(c4ccc(Cl)cc4)CCC2)NCC3)C1 (stereo not shown) [Example 180, 1-Acetyl-N-[2-({1-[1-(4-chlorophenyl)cyclobutyl]-1,2,3,4-tetrahydroisoquinolin-7-yl}oxy)ethyl]azetidine-3-sulfonamide di[(2E)-but-2-enedioate]]
≤ 10000	NCCCCS(=O)(=O)NCCOc1ccc2c(c1)C(C1(c3ccc(Cl)cc3)CCC1)NCC2 (stereo not shown) [Example 184, 4-Amino-N-[2-({1-[1-(4-chlorophenyl)cyclobutyl]-1,2,3,4-tetrahydroisoquinolin-7-yl}oxy)ethyl]butane-1-sulfonamide (2E)-but-2-enedioate]
≤ 10000	CN1CCOc2cc(S(=O)(=O)NCCOc3ccc4c(c3)C(C3(c5ccc(Cl)cc5)CCC3)NCC4)cnc21 (stereo not shown) [Example 185, N-[2-({1-[1-(4-Chlorophenyl)cyclobutyl]-1,2,3,4-tetrahydroisoquinolin-7-yl}oxy)ethyl]-4-methyl-3,4-dihydro-2H-pyrido[3,2-b][1,4]oxazine-7-sulfonamide hydrochloride]
≤ 10000	CC(=O)Nc1ncc(S(=O)(=O)NCCOc2ccc3c(c2)C(C2(c4ccc(Cl)cc4)CCC2)NCC3)s1 (stereo not shown) [Example 188, N-(5-{[2-({1-[1-(4-Chlorophenyl)cyclobutyl]-1,2,3,4-tetrahydroisoquinolin-7-yl}oxy)ethyl]sulfamoyl}-1,3-thiazol-2-yl)acetamide hydrochloride]

Continued, compound first:

Structure (SMILES)	Ki [nM]
CN(C)S(=O)(=O)NCCOc1ccc2c(c1)C(C1(c3ccc(Cl)cc3)CCC1)NCC2 (stereo not shown) [Example 143, N′-[2-({1-[1-(4-Chlorophenyl)cyclobutyl]-1,2,3,4-tetrahydroisoquinolin-7-yl}oxy)ethyl]-N,N-dimethylsulfuric diamide hydrochloride]	≤ 100
O=S(=O)(CCC(F)(F)F)NCCOc1ccc2c(c1)C(C1(c3ccc(Cl)cc3)CCC1)NCC2 (stereo not shown) [Example 144, N-[2-({1-[1-(4-Chlorophenyl)cyclobutyl]-1,2,3,4-tetrahydroisoquinolin-7-yl}oxy)ethyl]-3,3,3-trifluoropropane-1-sulfonamide hydrochloride]	≤ 100
NCCS(=O)(=O)NCCOc1ccc2c(c1)[C@H](C1(c3ccc(Cl)cc3)CCC1)NCC2 [Example 146, 2-Amino-N-[2-({(1S)-1-[1-(4-chlorophenyl)cyclobutyl]-1,2,3,4-tetrahydroisoquinolin-7-yl}oxy)ethyl]ethanesulfonamide dihydrochloride]	≤ 100
Nc1ccc(S(=O)(=O)NCCOc2ccc3c(c2)C(C2(c4ccc(Cl)cc4)CCC2)NCC3)cc1 (stereo not shown) [Example 147, 4-Amino-N-[2-({1-[1-(4-chlorophenyl)cyclobutyl]-1,2,3,4-tetrahydroisoquinolin-7-yl}oxy)ethyl]benzenesulfonamide dihydrochloride]	≤ 100
CN(C)CCS(=O)(=O)NCCOc1ccc2c(c1)C(C1(c3ccc(Cl)cc3)CCC1)NCC2 (stereo not shown) [Example 149, N-[2-({1-[1-(4-Chlorophenyl)cyclobutyl]-1,2,3,4-tetrahydroisoquinolin-7-yl}oxy)ethyl]-2-(dimethylamino)ethanesulfonamide (2E)-but-2-enedioate]	≤ 100
Nc1ncc(S(=O)(=O)NCCOc2ccc3c(c2)C(C2(c4ccc(Cl)cc4)CCC2)NCC3)cn1 (stereo not shown) [Example 150, 2-Amino-N-[2-({1-[1-(4-chlorophenyl)cyclobutyl]-1,2,3,4-tetrahydroisoquinolin-7-yl}oxy)ethyl]pyrimidine-5-sulfonamide]	≤ 100
O=S(=O)(NCCOc1ccc2c(c1)C(C1(c3ccc(Cl)cc3)CCC1)NCC2)c1cn[nH]c1 (stereo not shown) [Example 153, N-[2-({1-[1-(4-Chlorophenyl)cyclobutyl]-1,2,3,4-tetrahydroisoquinolin-7-yl}oxy)ethyl]-1H-pyrazole-4-sulfonamide hydrochloride]	≤ 100
COc1ccc(S(=O)(=O)NCCOc2ccc3c(c2)C(C2(c4ccc(Cl)cc4)CCC2)NCC3)cn1 (stereo not shown) [Example 156, N-[2-({1-[1-(4-Chlorophenyl)cyclobutyl]-1,2,3,4-tetrahydroisoquinolin-7-yl}oxy)ethyl]-6-methoxypyridine-3-sulfonamide hydrochloride]	≤ 100
Nc1cccc(S(=O)(=O)NCCOc2ccc3c(c2)C(C2(c4ccc(Cl)cc4)CCC2)NCC3)c1 (stereo not shown) [Example 157, 3-Amino-N-[2-({1-[1-(4-chlorophenyl)cyclobutyl]-1,2,3,4-tetrahydroisoquinolin-7-yl}oxy)ethyl]benzenesulfonamide dihydrochloride]	≤ 100
O=S(=O)(NCCOc1ccc2c(c1)C(C1(c3ccc(Cl)cc3)CCC1)NCC2)C1CCNC1 (stereo not shown) [Example 159, N-[2-({1-[1-(4-Chlorophenyl)cyclobutyl]-1,2,3,4-tetrahydroisoquinolin-7-yl}oxy)ethyl]pyrrolidine-3-sulfonamide dihydrochloride]	≤ 100
O=S(=O)(CCN1CCCCC1)NCCOc1ccc2c(c1)C(C1(c3ccc(Cl)cc3)CCC1)NCC2 (stereo not shown) [Example 161, N-[2-({1-[1-(4-Chlorophenyl)cyclobutyl]-1,2,3,4-tetrahydroisoquinolin-7-yl}oxy)ethyl]-2-(piperidin-1-yl)ethanesulfonamide (2E)-but-2-enedioate]	≤ 1000
CNc1nnc(S(=O)(=O)NCCOc2ccc3c(c2)C(C2(c4ccc(Cl)cc4)CCC2)NCC3)s1 (stereo not shown) [Example 162, N-[2-({1-[1-(4-Chlorophenyl)cyclobutyl]-1,2,3,4-tetrahydroisoquinolin-7-yl}oxy)ethyl]-5-(methylamino)-1,3,4-thiadiazole-2-sulfonamide hydrochloride]	≤ 1000
Nc1ncc(S(=O)(=O)NCCOc2ccc3c(c2)C(C2(c4ccc(Cl)cc4)CCC2)NCC3)s1 (stereo not shown) [Example 163, 2-Amino-N-[2-({1-[1-(4-chlorophenyl)cyclobutyl]-1,2,3,4-tetrahydroisoquinolin-7-yl}oxy)ethyl]-1,3-thiazole-5-sulfonamide dihydrochloride]	≤ 1000
O=S(=O)(NCCOc1ccc2c(c1)C(C1(c3ccc(Cl)cc3)CCC1)NCC2)C1CNC1 (stereo not shown) [Example 166, N-[2-({1-[1-(4-Chlorophenyl)cyclobutyl]-1,2,3,4-tetrahydroisoquinolin-7-yl}oxy)ethyl]azetidine-3-sulfonamide (2E)-but-2-enedioate]	≤ 1000
CC(C)NCCS(=O)(=O)NCCOc1ccc2c(c1)C(C1(c3ccc(Cl)cc3)CCC1)NCC2 (stereo not shown) [Example 169, N-[2-({1-[1-(4-Chlorophenyl)cyclobutyl]-1,2,3,4-tetrahydroisoquinolin-7-yl}oxy)ethyl]-2-(propan-2-ylamino)ethanesulfonamide]	≤ 1000
O=C(OCc1ccccc1)N1CCC(S(=O)(=O)NCCOc2ccc3c(c2)C(C2(c4ccc(Cl)cc4)CCC2)NCC3)C1 (stereo not shown) [Example 170, Benzyl 3-{[2-({1-[1-(4-chlorophenyl)cyclobutyl]-1,2,3,4-tetrahydroisoquinolin-7-yl}oxy)ethyl]sulfamoyl}pyrrolidine-1-carboxylate]	≤ 1000
